{"source": "the supplement of paper PMC9663587", "key": {"LEE011/Ribociclib": {"compound": "CN(C)C(=O)c1cc2cnc(Nc3ccc(N4CCNCC4)cn3)nc2n1C1CCCC1 [LEE011/Ribociclib]", "experiment": "increase in dead-cell fraction, 72 h; higher = more death;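 also: breast cancer cell lines in 384-well plates, stained with Hoechst plus LIVE/DEAD far red dye and imaged, cells above an LDR intensity threshold counted dead, Hoechst-negative corpses included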"}, "Neratinib/HKI272": {"compound": "CCOc1cc2ncc(C#N)c(Nc3ccc(OCc4ccccn4)c(Cl)c3)c2cc1NC(=O)/C=C/CN(C)C [Neratinib/HKI272]", "experiment": "increase in dead-cell fraction, 72 h; higher = more death"}, "[1]": {"compound": "CC(=O)c1c(C)c2cnc(Nc3ccc(N4CCNCC4)cn3)nc2n(C2CCCC2)c1=O", "experiment": "increase in dead-cell fraction, 72 h; higher = more death"}, "[2]": {"compound": "CCN1CCN(Cc2ccc(Nc3ncc(F)c(-c4cc(F)c5nc(C)n(C(C)C)c5c4)n3)nc2)CC1", "experiment": "increase in dead-cell fraction, 72 h; higher = more death"}, "THZ1": {"compound": "CN(C)C/C=C/C(=O)Nc1ccc(C(=O)Nc2cccc(Nc3ncc(Cl)c(-c4c[nH]c5ccccc45)n3)c2)cc1 [THZ1]", "experiment": "increase in dead-cell fraction, 72 h; higher = more death"}, "[3]": {"compound": "CCc1cnn2c(NCc3ccc[n+]([O-])c3)cc(N3CCCC[C@H]3CCO)nc12", "experiment": "increase in dead-cell fraction, 72 h; higher = more death"}, "BSJ-03-123": {"compound": "CC(=O)c1c(C)c2cnc(Nc3ccc(N4CCN(CCOCCOCCOCCNC(=O)COc5cccc6c5C(=O)N(C5CCC(=O)NC5=O)C6=O)CC4)cn3)nc2n(C2CCCC2)c1=O [BSJ-03-123]", "experiment": "increase in dead-cell fraction, 72 h; higher = more death"}, "Flavopiridol": {"compound": "CN1CC[C@H](c2c(O)cc(O)c3c(=O)cc(-c4ccccc4Cl)oc23)[C@H](O)C1 [Flavopiridol]", "experiment": "increase in dead-cell fraction, 72 h; higher = more death"}, "Vorinostat": {"compound": "O=C(CCCCCCC(=O)Nc1ccccc1)NO [Vorinostat]"}, "[4]": {"compound": "COc1ccc2c(c1)[C@]1(C[C@H]1c1ccc3c(/C=C/c4ccc(CN5C[C@@H](C)O[C@@H](C)C5)cc4)n[nH]c3c1)C(=O)N2"}, "AZD6738": {"compound": "C[C@@H]1COCCN1c1cc(C2([S@](C)(=N)=O)CC2)nc(-c2cc[nH]c3nccc2-3)n1 [AZD6738]"}, "[5]": {"compound": "CCC1=CN=CN=C1N2CCN(CC2)CC3=NC4=C(N3)C=C(C=C4)C(F)(F)F"}, "BSJ-01-175": {"compound": "CN(C)C/C=C/C(=O)Nc1ccc(O[C@@H]2CCC[C@@H](Nc3ncc(Cl)c(-c4c[nH]c5ccccc45)n3)C2)cc1 [BSJ-01-175]"}, "AZD2014": {"compound": "CNC(=O)c1cccc(-c2ccc3c(N4CCOC[C@@H]4C)nc(N4CCOC[C@@H]4C)nc3n2)c1 [AZD2014]"}, "Ipatasertib/GDC0068": {"compound": "CC(C)NC[C@@H](C(=O)N1CCN(c2ncnc3c2[C@H](C)C[C@H]3O)CC1)c1ccc(Cl)cc1 [Ipatasertib/GDC0068]"}, "AZD7762": {"compound": "NC(=O)Nc1cc(-c2cccc(F)c2)sc1C(=O)N[C@H]1CCCNC1 [AZD7762]"}, "Tivantinib/ARQ197": {"compound": "O=C1NC(=O)[C@@H](c2cn3c4c(cccc24)CCC3)[C@@H]1c1c[nH]c2ccccc12 [Tivantinib/ARQ197]"}, "[6]": {"compound": "CC(=O)Nc1cccc(-n2c(=O)n(C3CC3)c(=O)c3c(Nc4ccc(I)cc4F)n(C)c(=O)c(C)c32)c1"}}, "data": [{"cell line": "BT474", "values": [{"measurement": "increase in dead-cell fraction", "setting": "LEE011/Ribociclib; 0.001 µM", "value": 0.0109}, {"measurement": "increase in dead-cell fraction", "setting": "LEE011/Ribociclib; 0.003162 µM", "value": 0.0057}, {"measurement": "increase in dead-cell fraction", "setting": "LEE011/Ribociclib; 0.01 µM", "value": 0.0072}, {"measurement": "increase in dead-cell fraction", "setting": "LEE011/Ribociclib; 0.03162 µM", "value": 0.0158}, {"measurement": "increase in dead-cell fraction", "setting": "LEE011/Ribociclib; 0.1 µM", "value": 0.0086}, {"measurement": "increase in dead-cell fraction", "setting": "LEE011/Ribociclib; 0.3162 µM", "value": 0.0122}, {"measurement": "increase in dead-cell fraction", "setting": "LEE011/Ribociclib; 1 µM", "value": 0.0254}, {"measurement": "increase in dead-cell fraction", "setting": "LEE011/Ribociclib; 3.162 µM", "value": 0.0157}, {"measurement": "increase in dead-cell fraction", "setting": "LEE011/Ribociclib; 10 µM", "value": 0.0109}, {"measurement": "increase in dead-cell fraction", "setting": "Neratinib/HKI272; 0.0003162 µM", "value": 0.0014}, {"measurement": "increase in dead-cell fraction", "setting": "Neratinib/HKI272; 0.001 µM", "value": 0.0075}, {"measurement": "increase in dead-cell fraction", "setting": "Neratinib/HKI272; 0.003162 µM", "value": 0.0456}, {"measurement": "increase in dead-cell fraction", "setting": "Neratinib/HKI272; 0.01 µM", "value": 0.235}, {"measurement": "increase in dead-cell fraction", "setting": "Neratinib/HKI272; 0.03162 µM", "value": 0.359}, {"measurement": "increase in dead-cell fraction", "setting": "Neratinib/HKI272; 0.1 µM", "value": 0.369}, {"measurement": "increase in dead-cell fraction", "setting": "Neratinib/HKI272; 0.3162 µM", "value": 0.38}, {"measurement": "increase in dead-cell fraction", "setting": "Neratinib/HKI272; 1 µM", "value": 0.438}, {"measurement": "increase in dead-cell fraction", "setting": "Neratinib/HKI272; 3.162 µM", "value": 0.471}, {"measurement": "increase in dead-cell fraction", "setting": "[1]; 0.0003162 µM", "value": -0.0048}, {"measurement": "increase in dead-cell fraction", "setting": "[1]; 0.001 µM", "value": -0.0003}, {"measurement": "increase in dead-cell fraction", "setting": "[1]; 0.003162 µM", "value": -0.0027}, {"measurement": "increase in dead-cell fraction", "setting": "[1]; 0.01 µM", "value": 0.0006}, {"measurement": "increase in dead-cell fraction", "setting": "[1]; 0.03162 µM", "value": 0.0074}, {"measurement": "increase in dead-cell fraction", "setting": "[1]; 0.1 µM", "value": 0.0103}, {"measurement": "increase in dead-cell fraction", "setting": "[1]; 0.3162 µM", "value": 0.0169}, {"measurement": "increase in dead-cell fraction", "setting": "[1]; 1 µM", "value": 0.0196}, {"measurement": "increase in dead-cell fraction", "setting": "[1]; 3.162 µM", "value": 0.0256}, {"measurement": "increase in dead-cell fraction", "setting": "[2]; 0.001 µM", "value": -0.005}, {"measurement": "increase in dead-cell fraction", "setting": "[2]; 0.003162 µM", "value": -0.0017}, {"measurement": "increase in dead-cell fraction", "setting": "[2]; 0.01 µM", "value": 0.0057}, {"measurement": "increase in dead-cell fraction", "setting": "[2]; 0.03162 µM", "value": 0.0071}, {"measurement": "increase in dead-cell fraction", "setting": "[2]; 0.1 µM", "value": 0.0213}, {"measurement": "increase in dead-cell fraction", "setting": "[2]; 0.3162 µM", "value": 0.01}, {"measurement": "increase in dead-cell fraction", "setting": "[2]; 1 µM", "value": 0.0104}, {"measurement": "increase in dead-cell fraction", "setting": "[2]; 3.162 µM", "value": 0.0016}, {"measurement": "increase in dead-cell fraction", "setting": "[2]; 10 µM", "value": 0.0194}, {"measurement": "increase in dead-cell fraction", "setting": "THZ1; 0.0001 µM", "value": -0.0007}, {"measurement": "increase in dead-cell fraction", "setting": "THZ1; 0.0003162 µM", "value": -0.0012}, {"measurement": "increase in dead-cell fraction", "setting": "THZ1; 0.001 µM", "value": -0.0015}, {"measurement": "increase in dead-cell fraction", "setting": "THZ1; 0.003162 µM", "value": -0.0036}, {"measurement": "increase in dead-cell fraction", "setting": "THZ1; 0.01 µM", "value": 0.0152}, {"measurement": "increase in dead-cell fraction", "setting": "THZ1; 0.03162 µM", "value": 0.0225}, {"measurement": "increase in dead-cell fraction", "setting": "THZ1; 0.1 µM", "value": 0.175}, {"measurement": "increase in dead-cell fraction", "setting": "THZ1; 0.3162 µM", "value": 0.221}, {"measurement": "increase in dead-cell fraction", "setting": "THZ1; 1 µM", "value": 0.139}, {"measurement": "increase in dead-cell fraction", "setting": "[3]; 0.0001 µM", "value": -0.0025}, {"measurement": "increase in dead-cell fraction", "setting": "[3]; 0.0003162 µM", "value": -0.0015}, {"measurement": "increase in dead-cell fraction", "setting": "[3]; 0.001 µM", "value": -0.0013}, {"measurement": "increase in dead-cell fraction", "setting": "[3]; 0.003162 µM", "value": -0.002}, {"measurement": "increase in dead-cell fraction", "setting": "[3]; 0.01 µM", "value": 0.0053}, {"measurement": "increase in dead-cell fraction", "setting": "[3]; 0.03162 µM", "value": 0.207}, {"measurement": "increase in dead-cell fraction", "setting": "[3]; 0.1 µM", "value": 0.246}, {"measurement": "increase in dead-cell fraction", "setting": "[3]; 0.3162 µM", "value": 0.265}, {"measurement": "increase in dead-cell fraction", "setting": "[3]; 1 µM", "value": 0.249}, {"measurement": "increase in dead-cell fraction", "setting": "BSJ-03-123; 0.001 µM", "value": 0.0078}, {"measurement": "increase in dead-cell fraction", "setting": "BSJ-03-123; 0.003162 µM", "value": 0.0052}, {"measurement": "increase in dead-cell fraction", "setting": "BSJ-03-123; 0.01 µM", "value": 0.0155}, {"measurement": "increase in dead-cell fraction", "setting": "BSJ-03-123; 0.03162 µM", "value": 0.004}, {"measurement": "increase in dead-cell fraction", "setting": "BSJ-03-123; 0.1 µM", "value": 0.0074}, {"measurement": "increase in dead-cell fraction", "setting": "BSJ-03-123; 0.3162 µM", "value": 0.0224}, {"measurement": "increase in dead-cell fraction", "setting": "BSJ-03-123; 1 µM", "value": 0.0243}, {"measurement": "increase in dead-cell fraction", "setting": "BSJ-03-123; 3.162 µM", "value": 0.0241}, {"measurement": "increase in dead-cell fraction", "setting": "BSJ-03-123; 10 µM", "value": 0.0415}, {"measurement": "increase in dead-cell fraction", "setting": "Flavopiridol; 0.0001 µM", "value": 0.0042}, {"measurement": "increase in dead-cell fraction", "setting": "Flavopiridol; 0.0003162 µM", "value": 0.0024}, {"measurement": "increase in dead-cell fraction", "setting": "Flavopiridol; 0.001 µM", "value": -0.0008}, {"measurement": "increase in dead-cell fraction", "setting": "Flavopiridol; 0.003162 µM", "value": 0.0046}, {"measurement": "increase in dead-cell fraction", "setting": "Flavopiridol; 0.01 µM", "value": -0.0017}, {"measurement": "increase in dead-cell fraction", "setting": "Flavopiridol; 0.03162 µM", "value": 0.003}, {"measurement": "increase in dead-cell fraction", "setting": "Flavopiridol; 0.1 µM", "value": 0.0067}, {"measurement": "increase in dead-cell fraction", "setting": "Flavopiridol; 0.3162 µM", "value": 0.0397}, {"measurement": "increase in dead-cell fraction", "setting": "Flavopiridol; 1 µM", "value": 0.274}, {"measurement": "GR50, 72 h", "setting": "Vorinostat", "value": 2.71, "unit": "µM"}, {"measurement": "GR50, 72 h", "setting": "[4]", "value": 0.0122, "unit": "µM"}, {"measurement": "GR50, 72 h", "setting": "AZD6738", "value": 7.93, "unit": "µM"}, {"measurement": "GR50, 72 h", "setting": "[5]", "value": "> 10", "unit": "µM"}, {"measurement": "GR50, 72 h", "setting": "BSJ-01-175", "value": 0.0747, "unit": "µM"}, {"measurement": "GR50, 72 h", "setting": "AZD2014", "value": "< 0.001", "unit": "µM"}, {"measurement": "GR50, 72 h", "setting": "Ipatasertib/GDC0068", "value": 0.521, "unit": "µM"}, {"measurement": "GR50, 72 h", "setting": "AZD7762", "value": 2, "unit": "µM"}, {"measurement": "GR50, 72 h", "setting": "Tivantinib/ARQ197", "value": 0.551, "unit": "µM"}, {"measurement": "GR50, 72 h", "setting": "[6]", "value": "> 1", "unit": "µM"}]}]}
